Results from ChEMBL document CHEMBL1201862, “PubChem BioAssay data set” (2004).
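All cell lines were grown in 96-well plates and treated with compound for 48 hours. The concentration for 50% growth inhibition is given as GI50.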 Activity calls are given as the source filed them. Rule as the data show it: active = GI50 up to about 1.1 µM and inactive = higher.

Experiments:
Test in all cases: growth of human tumour cells (NCI), 48 h
786-0 = system: 786-0
A498 = system: A498
A549 = system: A549
ACHN = system: ACHN
BT-549 = system: BT-549
CAKI-1 = system: CAKI-1
CCRF-CEM = system: CCRF-CEM
COLO 205 = system: COLO 205
DU-145 = system: DU-145
EKVX = system: EKVX
HCC 2998 = system: HCC 2998
HCT-116 = system: HCT-116
HCT-15 = system: HCT-15
HL-60 = system: HL-60
HOP-62 = system: HOP-62
HOP-92 = system: HOP-92
HT-29 = system: HT-29
Hs-578T = system: Hs-578T
IGROV-1 = system: IGROV-1
KM12 = system: KM12
LOX IMVI = system: LOX IMVI
M14 = system: M14
MCF7 = system: MCF7
MDA-MB-231 = system: MDA-MB-231
MDA-MB-435 = system: MDA-MB-435
MDA-N = system: MDA-N
MOLT-4 = system: MOLT-4
Malme-3M = system: Malme-3M
NCI-H226 = system: NCI-H226
NCI-H23 = system: NCI-H23
NCI-H460 = system: NCI-H460
NCI-H522 = system: NCI-H522
NCI/ADR-RES = system: NCI/ADR-RES
OVCAR-3 = system: OVCAR-3
OVCAR-4 = system: OVCAR-4
OVCAR-5 = system: OVCAR-5
OVCAR-8 = system: OVCAR-8
PC-3 = system: PC-3
RPMI-8226 = system: RPMI-8226
RXF 393 = system: RXF 393
SF-268 = system: SF-268
SF-295 = system: SF-295
SF-539 = system: SF-539
SK-MEL-28 = system: SK-MEL-28
SK-MEL-2 = system: SK-MEL-2
SK-MEL-5 = system: SK-MEL-5
SK-OV-3 = system: SK-OV-3
SN12C = system: SN12C
SNB-19 = system: SNB-19
SR = system: SR
SW-620 = system: SW-620
T47D = system: T47D
TK-10 = system: TK-10
U-251 = system: U-251
UACC-257 = system: UACC-257
UACC-62 = system: UACC-62
UO-31 = system: UO-31

Measured: GI50

C=C1c2[nH]c3ccccc3c2C2C(CC)C1CCN2C (configuration not stated)
90.8 µM: HCT-15
inactive: 786-0 > 100 µM | A498 18.9 µM | A549 > 100 µM | ACHN > 100 µM | BT-549 > 100 µM | CAKI-1 > 100 µM | CCRF-CEM 54.6 µM | COLO 205 16.7 µM | DU-145 > 100 µM | EKVX 28.4 µM | HCC 2998 18.5 µM | HCT-116 51.2 µM | HL-60 49.1 µM | HOP-62 > 100 µM | HOP-92 25.6 µM | HT-29 27.8 µM | Hs-578T 40.9 µM | IGROV-1 15.2 µM | KM12 > 100 µM | LOX IMVI 49.7 µM | M14 19.3 µM | MCF7 56.1 µM | MDA-MB-231 48.4 µM | MDA-MB-435 65.9 µM | MDA-N 72.8 µM | MOLT-4 27.2 µM | Malme-3M 24.3 µM | NCI-H226 6.62 µM | NCI-H23 > 100 µM | NCI-H460 82 µM | NCI-H522 63.2 µM | NCI/ADR-RES 42.2 µM | OVCAR-3 > 100 µM | OVCAR-4 53.6 µM | OVCAR-5 > 100 µM | OVCAR-8 53.1 µM | PC-3 32.8 µM | RPMI-8226 32.5 µM | RXF 393 > 100 µM | SF-268 > 100 µM | SF-295 55.8 µM | SF-539 92 µM | SK-MEL-28 29.5 µM | SK-MEL-2 > 100 µM | SK-MEL-5 61.1 µM | SK-OV-3 > 100 µM | SN12C 98.4 µM | SNB-19 > 100 µM | SR 34.8 µM | SW-620 > 100 µM | T47D > 100 µM | TK-10 33.3 µM | U-251 79.3 µM | UACC-257 26 µM | UACC-62 48.4 µM | UO-31 > 100 µM
